“And” between values parts separate entries of the source, which are not always exact repeats. Identical values can stand only once.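 Where inhibition never reached the appropriate level, the endpoint shown equals the highest concentration tested. Otherwise, values were interpolated linearly from a five-concentration, 48-hour dose response in 96-well plates. GI50 is the concentration that inhibits growth by half. Definition used: TGI = concentration required for complete inhibition of growth.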
Tests used:
Test in all cases: NCI anticancer screen, dose series, 48 h
OVCAR-4 ovarian = test system: OVCAR-4 ovarian
NCI-H23 lung = test system: NCI-H23 lung
HOP-92 NSCLC = test system: HOP-92 NSCLC
NCI-H522 lung = test system: NCI-H522 lung
SF-539 CNS = test system: SF-539 CNS
SW-620 colon = test system: SW-620 colon
OVCAR-5 ovarian = test system: OVCAR-5 ovarian
IGROV1 ovarian = test system: IGROV1 ovarian
SR leukemia = test system: SR leukemia
A549 NSCLC = test system: A549 NSCLC

SMILES	TGI (OVCAR-4 ovarian)	TGI (NCI-H23 lung)	TGI (HOP-92 NSCLC) [µM]	TGI (NCI-H522 lung)	TGI (SF-539 CNS)	TGI (SW-620 colon)	TGI (OVCAR-5 ovarian)	TGI (IGROV1 ovarian)	TGI (SR leukemia) [µM]	TGI (A549 NSCLC)	GI50 (NCI-H23 lung) [µM]	GI50 (HOP-92 NSCLC) [µM]	GI50 (SF-539 CNS) [µM]	GI50 (A549 NSCLC) [µM]	GI50 (OVCAR-4 ovarian) [µM]	GI50 (NCI-H522 lung) [µM]	GI50 (SW-620 colon) [µM]	GI50 (OVCAR-5 ovarian) [µM]	GI50 (IGROV1 ovarian) [µM]
COc1cc2c(cc1OC)-c1cc3cc(OC)c(OC)cc3c(C)[n+]1CC2 (tested in a mixture with another compound)	> 100 µM	> 100 µM	> 100	> 100 µM	> 100 µM	> 100 µM	> 100 µM	> 100 µM	[…]	> 100 µM									
COc1cccc2c1C(=O)c1c(O)c3c(c(O)c1C2=O)CC(O)(C(C)=O)CC3OC1OC(COC(C)=O)C(OC(C)=O)C(OC(C)=O)C1OC(C)=O (centres undefined)	53.3 µM		32.2	> 100 µM	39.7 µM	> 100 µM	96.6 µM	47.5 µM	25.8	> 100 µM									
Oc1ccccc1CNCc1ccccc1O	> 100 µM	> 100 µM	> 100	> 100 µM	> 100 µM	> 100 µM	> 100 µM	> 100 µM		> 100 µM									
O=C(N/N=C/c1cc(Cl)cc(Cl)c1[O-])c1ccccc1O.O=C(N/N=C/c1cc(Cl)cc(Cl)c1[O-])c1ccccc1O.[Cu+2]	0.637 µM	1.66 µM	0.671	0.568 µM	1.02 µM	1.97 µM	1.92 µM	1.16 µM	0.511	1.65 µM	0.436	0.224	0.306	0.385					
O=C(N/N=C/c1cc(Cl)cc(Cl)c1[O-])c1ccccc1O.O=C(N/N=C/c1cc(Cl)cc(Cl)c1[O-])c1ccccc1O.[Fe+2]	33.7 µM	31.6 µM	8.33	23.8 µM	28 µM	48.2 µM		56.5 µM	35.8	35.2 µM	6	3.4	10.4	10.2					
CCN(CC)CCCNC(=O)c1ccccc1Nc1c(Cl)cccc1Cl	23 µM	30.9 µM			23.7 µM	30.1 µM	24.3 µM	34 µM	27.6	31.5 µM									
NCCNc1ccc(NCCN)c2c1C(=O)c1c(O)ccc(O)c1C2=O	1.09 µM and 0.715 µM	0.0442 µM and 0.0835 µM	0.0789	0.467 µM and 0.15 µM	0.932 µM and 0.261 µM	1.32 µM and 1.12 µM	1.5 µM and 3.18 µM	1.17 µM and 1.5 µM	0.0171	0.223 µM and 0.393 µM	< 0.0144	0.229	< 0.0112		0.0625	0.018	0.0288	0.364	0.182
Cn1cc(-c2csc(-c3cn(CCCN4CCCCC4)c4ccc(Br)cc34)n2)c2cccnc21	4.19 µM	3.51 µM	3.63		3.2 µM	3.26 µM	3.01 µM	3.33 µM			1.79	1.79	1.75		2.02		1.82	1.57	1.63
O=[N+]([O-])c1cc(C(F)(F)F)cc2c1SC1=Nc3ccccc3CN12	> 100 µM	> 100 µM	> 100	> 100 µM	> 100 µM	> 100 µM	> 100 µM	> 100 µM		> 100 µM									
CC(=O)C(C(=O)C(=O)Nc1cc(Cl)c(Cl)cc1Cl)c1csc(N)n1 (centres undefined)	> 100 µM	> 100 µM	> 100	> 100 µM	> 100 µM	> 100 µM	> 100 µM	> 100 µM	> 100	> 100 µM									
O=c1[nH]c(Br)nc2n[nH]nc12	> 100 µM	> 100 µM	> 100	> 100 µM	94.9 µM	> 100 µM	> 100 µM	> 100 µM	> 100	> 100 µM									
O=C(N/N=C/c1cc(Cl)cc(Cl)c1[OH2+])c1ccncc1.O=S(=O)([O-])[O-].[Fe+2]		51.3 µM	9.66	7.44 µM	36.4 µM	> 100 µM	49.8 µM	15.4 µM	54.6	53.9 µM		3.71							
C[N+]1(C)C/C(=C\C=C\c2ccccc2)C(=O)/C(=C/C=C/c2ccccc2)C1	> 84.2 µM	34.4 µM	70.3	21.5 µM	33.9 µM	41.5 µM	54.7 µM	35.8 µM	23.9	> 100 µM									
Nc1n[nH]c(N)n1	> 10000 µM	> 9700 µM	9580	4640 µM	8860 µM	> 10000 µM	> 9810 µM	> 7740 µM	9840	> 10000 µM									
CCCCCC1CC(C(C)=O)CN1c1ccc(F)cc1 (centres undefined)		63.8 µM	83.6	56.5 µM	> 100 µM	> 100 µM	> 100 µM		> 10	> 100 µM									
Oc1c(Cl)c(Cl)c(O)c(-c2cnc(-c3ncc(-c4c(O)c(Cl)c(Cl)c(O)c4Cl)s3)s2)c1Cl	> 100 µM	39.9 µM	> 100	5.43 µM	81.7 µM	> 100 µM	36.4 µM	37 µM	> 100	> 100 µM									
CC(=O)OC1(C)CC(C)C(=O)C(C(O)CC2CC(=O)NC(=O)C2)C1 (centres undefined)	0.178 µM and 0.0277 µM		0.0121	0.146 µM		0.129 µM	0.293 µM and 2.4 µM	0.0489 µM		0.936 µM and 3.32 µM									

Reference: PubChem BioAssay (NCI)
